Data reported in patent publication US8748466B2, “Isoxazole derivatives useful as antibacterial agents” (Pfizer Inc., priority 2011, dated 2014).
≈ marks a conversion by molar mass, not a printed value. Like-named read-outs stand apart in the source and are kept apart here.

Legend:
[1] = tested on: Escherichia coli EC-1: VOGEL, mouse virulent; test: MIC determination (CLSI), EC-1; type: cell-based; conditions: read-out: EC-1 MIC
Description: (§1) The in vitro antibacterial activity of compounds described in the Examples was evaluated by minimum inhibitory concentration (MIC) testing according to Clinical and Laboratory Standards Institute (CLSI). See: Clinical and Laboratory Standards Institute. Methods for Dilution Antimicrobial Susceptibility Tests for Bacteria that Grow Aerobically; Approved Standard-Eighth Edition. CLSI document M7-A8 [ISBN 1-56238-689-1]. Clinical and Laboratory Standards Institute, 940 West Valley Road, Suite 1400, Wayne, Pa. 19087-1898 USA, 2006; also Clinical and Laboratory Standards Institute. Performance Standards for Antimicrobial Susceptibility Testing; Twentieth Informational Supplement. CLSI document M100-S20 [ISBN1-56238-716-2]. Clinical and Laboratory Standards Institute.
(§2) The MIC determination is a standard laboratory method for evaluating the antibacterial activity of a compound. The MIC represents the lowest drug concentration that inhibits visible growth of bacteria following overnight incubation. […] Typically, the drug concentration range is broken down into 2-fold increments (e.g., 0.06 μg/mL, 0.12 μg/mL. 0.25 μg/mL, 0.50 μg/mL, 1.0 μg/mL, etc.) and the various drug concentrations are all individually incubated overnight with approximately the same number of bacteria. The MIC is then determined by visually inspecting the drug effect at each concentration, and identifying the lowest drug concentration that has inhibited bacterial growth as compared to the drug free control. Typically, bacteria continue to grow at drug concentrations lower than the MIC and don't grow at concentrations at and above the MIC.
(§3) The MIC values described in Tables 4 and 5 below were derived from assays wherein each test compound was evaluated in duplicate. In cases where the duplicate values varied by 0-2-fold, the lower of the two values was reported below. Generally speaking, if the duplicate values varied by more than 2-fold, the assay was considered non-valid and was repeated until the variation between duplicate runs was 2-fold. In line with the CLSI guidelines referred to above, both control organisms and reference compounds were utilized in each MIC assay to provide proper quality control. MIC values generated with these control organisms and reference compounds were required to fall within a defined range for the assay to be considered valid and be included herein. Those skilled in the art will recognize that MIC values can and do vary from experiment to experiment. Generally speaking, it should be recognized that MIC values often vary +/−2-fold from experiment to experiment. While a single MIC is reported for each compound and each microorganism, the reader should not conclude that each compound was only tested once. Several of the compounds were subjected to multiple tests. The data reported in Tables 4 and 5 is reflective of the compound's relative activity and different MICs may have been generated on these occasions in line with the guidelines described above.
(§4) The following bacterial strains were used in these MIC determinations:
2) Escherichia coli EC-1: VOGEL, mouse virulent labeled as EC-1 in Tables 4 and 5;

[2] = tested on: Pseudomonas aeruginosa UC12120 (mouse virulent); test: MIC determination (CLSI), PA-UC12120; type: cell-based; conditions: UC12120, read-out: PA-UC12120 MIC
Description: as §1, §2, §3, §4
1) Pseudomonas aeruginosa UC12120 (mouse virulent) labeled as PA-UC12120 in Tables 4 and 5;

[3] = biological target: T1, Pseudomonas aeruginosa LpxC enzyme (Pseudomonas aeruginosa, UniProt P47205); test: LpxC enzyme IC50 assay (PA LpxC enzyme IC50), BioTrove RapidFire mass spectrometry; type: biochemical
T1 construct: made in house; host or cells: E. coli
T1 sequence (P47205 1-303): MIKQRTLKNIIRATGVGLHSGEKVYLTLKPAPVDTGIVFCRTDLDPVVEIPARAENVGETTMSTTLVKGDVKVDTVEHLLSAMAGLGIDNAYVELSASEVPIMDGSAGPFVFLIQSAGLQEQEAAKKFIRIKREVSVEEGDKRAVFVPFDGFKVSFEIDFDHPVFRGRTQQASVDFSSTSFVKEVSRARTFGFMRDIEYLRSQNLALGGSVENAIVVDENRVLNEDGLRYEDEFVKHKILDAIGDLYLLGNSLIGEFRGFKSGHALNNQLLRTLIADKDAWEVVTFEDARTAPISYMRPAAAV
Description: In order to assess the compounds biological activity selected in vitro assays were conducted on selected compounds. One of the assays measured the compounds ability to disrupt the synthesis of lipopolysaccharide, LPS, which is a component of the outer membrane of Gram-negative bacteria. Disruption of this synthesis is lethal to the bacteria. The assay determined the compound's ability to inhibit LpxC, which is the first enzyme in the biosynthetic pathway for LPS (measured as IC50). Additionally, MICs (minimal inhibitory concentrations) were determined for several bacteria. The specific protocols are described below:
A) IC50 Assay LpxC Enzyme from P. aeruginosa Labeled as PA LpxC Enzyme IC50):
At the end of 1 hour, 5 ul of 1 N HCl was added to stop the enzyme reaction, the plates were centrifuged, and then processed with the BioTrove Rapidfire HTMS Mass Spectrometry System. A no-enzyme control was used in calculating the IC50 values from the percent conversion values.

[4] = tested on: Acinetobacter baumannii/haemolyticus: Multidrug-resistant clinical isolate AB-3167; test: MIC determination (CLSI), AB-3167; type: cell-based; conditions: overnight incubation, duplicate, lower of the two values reported
Description: as §1, §2, §3, §4
3) Acinetobacter baumannii/haemolyticus: Multidrug-resistant clinical isolate labeled as AB-3167 in Tables 4 and 5;

[5] = P. aeruginosa LpxC enzyme 0.1 nM, 25° C., 1 hour, pH 8.0, read-out: PA:IC50

SMILES | MIC [1] [µg/mL] | MIC [2] [µg/mL] | IC50 [3, 5] [nM] | MIC [4] [µg/mL] | IC50 [3] [nM]
CC(CCc1cc(-c2c(Cl)cccc2Cl)on1)(C(=O)NO)S(C)(=O)=O (racemic) [Example 10, 4-[5-(2,6-dichlorophenyl)isoxazol-3-yl]-N-hydroxy-2-methyl-2-(methylsulfonyl)butanamide] | 8 (≈ 19.6 µM) | 64 (≈ 157 µM) | 10.5 | > 64 | 
CC(CCc1cc(-c2cccc(Cl)c2Cl)on1)(C(=O)NO)S(C)(=O)=O (racemic) [Example 30, 4-[5-(2,3-dichlorophenyl)isoxazol-3-yl]-N-hydroxy-2-methyl-2-(methylsulfonyl)butanamide] | 4 (≈ 9.82 µM) | 1 (≈ 2.46 µM) |  | > 64 | 2.7
CCOC(=O)N(Cc1cc(CCC(C)(C(=O)NO)S(C)(=O)=O)no1)C(C)C (racemic) [Example 23, ethyl ({3-[4-(hydroxyamino)-3-methyl-3-(methylsulfonyl)-4-oxobutyl]isoxazol-5-yl}methyl)isopropylcarbamate] | > 64 | > 64 | > 100 | > 64 | 
COc1ccccc1OCc1cc(CCC(C)(C(=O)NO)S(C)(=O)=O)no1 (racemic) [Example 12, N-hydroxy-4-{5-[(2-methoxyphenoxy)methyl]isoxazol-3-yl}-2-methyl-2-(methylsulfonyl)butanamide] | > 64 | > 64 | 37.4 | > 64 | 
CC(CCc1cc(-c2ccncc2F)no1)(C(=O)NO)S(C)(=O)=O (racemic) [Example 37, 4-[3-(3-fluoropyridin-4-yl)isoxazol-5-yl]-N-hydroxy-2-methyl-2-(methylsulfonyl)butanamide] | > 64 | 16 (≈ 44.8 µM) | 52.4 | > 64 | 
CC(CCc1cc(-c2cccc(F)c2)on1)(C(=O)NO)S(C)(=O)=O (racemic) [Example 21, 4-[5-(3-fluorophenyl)isoxazol-3-yl]-N-hydroxy-2-methyl-2-(methylsulfonyl)butanamide] | 32 (≈ 89.8 µM) | 4 (≈ 11.2 µM) |  | > 64 | 6.8
CC(CCc1cc(-c2ccc(F)c(F)c2)no1)(C(=O)NO)S(C)(=O)=O (racemic) [Example 41, 4-[3-(3,4-difluorophenyl)isoxazol-5-yl]-N-hydroxy-2-methyl-2-(methylsulfonyl)butanamide] | 16 (≈ 42.7 µM) | 2 (≈ 5.34 µM) | 6.8 | > 64 | 
CC(CCc1cc(-c2ccc3c(c2)OCO3)no1)(C(=O)NO)S(C)(=O)=O (racemic) [Example 33, 4-[3-(1,3-benzodioxol-5-yl)isoxazol-5-yl]-N-hydroxy-2-methyl-2-(methylsulfonyl)butanamide] | 16 (≈ 41.8 µM) | 2 (≈ 5.23 µM) | 5.1 | > 64 | 
CCc1ccc(-c2cc(CCC(C)(C(=O)NO)S(C)(=O)=O)on2)s1 (racemic) [Example 7, 4-[3-(5-ethyl-2-thienyl)isoxazol-5-yl]-N-hydroxy-2-methyl-2-(methylsulfonyl)butanamide] | 4 (≈ 10.7 µM) | 0.5 (≈ 1.34 µM) | 1.1 | 64 (≈ 172 µM) | 
CC(CCc1cc(-c2ccccc2F)on1)(C(=O)NO)S(C)(=O)=O (racemic) [Example 8, 4-[5-(2-fluorophenyl)isoxazol-3-yl]-N-hydroxy-2-methyl-2-(methylsulfonyl)butanamide] | 16 (≈ 44.9 µM) | 1 (≈ 2.81 µM) |  | > 64 | 8.3
CC(CCc1cc(-c2ccc(F)cc2)no1)(C(=O)NO)S(C)(=O)=O (racemic) [Example 44, 4-[3-(4-fluorophenyl)isoxazol-5-yl]-N-hydroxy-2-methyl-2-(methylsulfonyl)butanamide] | 16 (≈ 44.9 µM) | 1 (≈ 2.81 µM) | 3.8 | > 64 | 
COc1ccccc1-c1cc(CCC(C)(C(=O)NO)S(C)(=O)=O)on1 (racemic) [Example 49, N-hydroxy-4-[3-(2-methoxyphenyl)isoxazol-5-yl]-2-methyl-2-(methylsulfonyl)butanamide] | > 64 | 32 (≈ 86.9 µM) | 42.4 | > 64 | 
CCCCNC(=O)OCc1cc(CCC(C)(C(=O)NO)S(C)(=O)=O)no1 (racemic) [Example 25, {3-[4-(hydroxyamino)-3-methyl-3-(methylsulfonyl)-4-oxobutyl]isoxazol-5-yl}methyl butylcarbamate] | > 64 | > 64 | > 100 | > 64 | 
CC(CCc1cc(-c2ccc(N3CCOCC3)c(F)c2)no1)(C(=O)NO)S(C)(=O)=O (racemic) [Example 48, 4-[3-(3-fluoro-4-morpholin-4-ylphenyl)isoxazol-5-yl]-N-hydroxy-2-methyl-2-(methylsulfonyl)butanamide] | 32 (≈ 72.5 µM) | 32 (≈ 72.5 µM) | 24.2 | > 64 | 
COc1cccc(OC)c1-c1cc(CCC(C)(C(=O)NO)S(C)(=O)=O)no1 (racemic) [Example 24, 4-[5-(2,6-dimethoxyphenyl)isoxazol-3-yl]-N-hydroxy-2-methyl-2-(methylsulfonyl)butanamide] | > 64 | > 64 | > 100 | > 64 | 
COc1cccc(OC)c1-c1cc(CCC(C)(C(=O)NO)S(C)(=O)=O)on1 (racemic) [Example 32, 4-[3-(2,6-dimethoxyphenyl)isoxazol-5-yl]-N-hydroxy-2-methyl-2-(methylsulfonyl)butanamide] | > 64 | > 64 | 88.7 | > 64 | 
CC(CCc1cc(-c2cccc(F)c2)no1)(C(=O)NO)S(C)(=O)=O (racemic) [Example 34, 4-[3-(3-fluorophenyl)isoxazol-5-yl]-N-hydroxy-2-methyl-2-(methylsulfonyl)butanamide] | 32 (≈ 89.8 µM) | 2 (≈ 5.61 µM) | 9.3 | > 64 | 
CC(CCc1cc(COCc2ccccc2)on1)(C(=O)NO)S(C)(=O)=O (racemic) [Example 9, 4-{5-[(benzyloxy)methyl]isoxazol-3-yl}-N-hydroxy-2-methyl-2-(methylsulfonyl)butanamide] | > 64 | 8 (≈ 20.9 µM) | 25.1 | > 64 | 
CC(CCc1cc(-c2ccc3ccccc3n2)no1)(C(=O)NO)S(C)(=O)=O (racemic) [Example 35, N-hydroxy-2-methyl-2-(methylsulfonyl)-4-(3-quinolin-2-ylisoxazol-5-yl)butanamide] | 32 (≈ 82.2 µM) | 8 (≈ 20.5 µM) | 22.1 | > 64 | 
COc1ccc(-c2cc(CCC(C)(C(=O)NO)S(C)(=O)=O)on2)cc1OC (racemic) [Example 42, 4-[3-(3,4-dimethoxyphenyl)isoxazol-5-yl]-N-hydroxy-2-methyl-2-(methylsulfonyl)butanamide] | > 64 | 64 (≈ 161 µM) | 38.6 | > 64 | 
